Where two headings read alike, the source gives them in different places.
Columns and labels:
[1] = biological target: T1, SF9 affinity purified rat farnesyl protein transferase (Rattus norvegicus, UniProt Q02293+Q04631); experiment: PFT inhibitory activity (radiolabeled farnesyl pyrophosphate, streptavidin bead assay); format: biochemical
T1 construct: made in house; host or cells: Sf9 insect cells (baculovirus system inferred from b7)
How it was run: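 HEPES pH 7.4 with 5 mM potassium phosphate (also run without), 20 μM ZnCl2, 5 mM DTT, 5 mM MgCl2, 0.1% PEG 8000; [3H]farnesyl pyrophosphate 134 nM and biotinyl-Ahe-TKCVIM peptide 0.2 μM final. Incubated 30 min at 30° C, stopped with acidic magnesium acetate/streptavidin bead buffer; bead-bound radioactivity counted.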

[2] = test system: ras farnesylation in ras-transformed cells; experiment: Gel shift assay; format: cell-based; conditions: ras-transformed cells, 18-hour incubation; read-out: Gel Shift (μM) MED (minimal effective dose to observe inhibition of ras farnesylation)
How it was run: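 Ras-transformed cells (2×10^6 per condition) treated with farnesylation inhibitor at varying concentrations for 18 h. Ras immunoprecipitated from lysates with Y13-259, resolved on 14% SDS gels and detected by pan-ras Western blot with ECL, farnesylated and unfarnesylated ras separating by mobility shift.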

[3] = test system: H61 cells: NIH transformed 3T3 H-ras cells; experiment: Clonogenic assay (6 well plates, soft agar); format: cell-based; conditions: colonies counted after Day 13, read-out: Clonogenic Assay IC50
How it was run: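 Soft-agar colony formation: cells seeded in 0.3% agar top layer with 20% calf serum over a 0.6% agar base, drug or DMSO added at 4 µL per mL agar/medium. Incubated at 37 °C, 5% CO2; INT (1 mg/mL) added on day 13 to stain colonies.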

[4] = HEPES buffer pH 7.4, without 5 mM potassium phosphate, read-out: IC50 (μM) Hepes
[5] = HEPES buffer pH 7.4 containing 5 mM potassium phosphate, read-out: IC50 (μM) 5 mM K3 PO4 -2

T1 sequence (Q02293 whole entry, one chain of several): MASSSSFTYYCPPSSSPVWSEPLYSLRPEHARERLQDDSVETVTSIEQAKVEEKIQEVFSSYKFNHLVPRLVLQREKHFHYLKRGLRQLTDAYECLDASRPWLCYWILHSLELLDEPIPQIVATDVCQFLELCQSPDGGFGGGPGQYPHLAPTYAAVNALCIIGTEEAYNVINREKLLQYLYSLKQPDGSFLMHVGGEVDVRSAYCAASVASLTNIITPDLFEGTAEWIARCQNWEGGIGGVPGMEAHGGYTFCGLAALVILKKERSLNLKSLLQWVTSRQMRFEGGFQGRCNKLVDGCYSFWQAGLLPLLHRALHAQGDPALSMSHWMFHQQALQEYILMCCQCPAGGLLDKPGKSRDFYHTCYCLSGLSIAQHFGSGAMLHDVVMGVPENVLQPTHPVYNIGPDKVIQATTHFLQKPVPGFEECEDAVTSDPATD

Row | Compound | IC50 [1, 4] [µM] | IC50 [1, 5] [µM] | minimal effective concentration [2] [µM] | IC50 ([3]; 312 h) [nM] | IC50 [3] [nM]
1 | CC(CNC(=O)CN(Cc1ccccc1Cl)C(=O)[C@H](Cc1c[nH]cn1)NC(=O)OCc1ccccc1)c1ccccc1 (stereo partly drawn) [Example 28, (S)-[1-{(2-Chloro-benzyl)-[(2-phenyl-propylcarbamoyl)-methyl]-carbamoyl}-2-(1H-imidazole-4-yl)-ethyl]-carbamic Acid Benzyl Ester] | 2.6 | 0.043 | 0.2 | 600 | –
2 | CC(CNC(=O)CN(Cc1cccc(Cl)c1)C(=O)[C@H](Cc1c[nH]cn1)NC(=O)OCc1ccccc1)c1ccccc1 (stereo partly drawn) [Example 30, (S)-[1-{(3-Chloro-benzyl)-[(2-phenyl-propylcarbamoyl)-methyl]-carbamoyl}-2-(1H-imidazole-4-yl)-ethyl]-carbamic Acid Benzyl Ester] | 0.78 | 0.016 | 0.1 | > 1000 | –
3 | CC(C)(CNC(=O)CN(Cc1ccc(Cl)cc1)C(=O)[C@H](Cc1c[nH]cn1)NC(=O)OCc1ccccc1)c1ccccc1 [Example 31, (S)-[1-{(4-Chloro-benzyl)-[(2-methyl-2-phenyl-propylcarbamoyl)-methyl]-carbamoyl}-2-(1H-imidazole-4-yl)-ethyl]-carbamic Acid Benzyl Ester] | 0.52 | 0.014 | 0.1 | > 1000 | –
4 | CC(CNC(=O)CN(Cc1ccc(OCc2ccccc2)cc1)C(=O)[C@H](Cc1c[nH]cn1)NC(=O)OCc1ccccc1)c1ccccc1Cl (stereo partly drawn) [Example 32, (S)-[1-((4-Benzyloxy-benzyl)-{[2-(2-chloro-phenyl)-propylcarbamoyl]-methyl}-carbamoyl)-2-(1H-imidazole-4-yl)-ethyl]-carbamic Acid Benzyl Ester] | 0.32 | 0.007 | 0.05 | 360 | –
5 | COc1ccccc1CN(CC(=O)NCC(C)c1ccccc1)C(=O)[C@H](Cc1c[nH]cn1)NC(=O)OCc1ccccc1 (stereo partly drawn) [Example 33, (S)-(2-(1H-Imidazole-4-yl)-1-{(2-methoxy-benzyl)-[(2-phenyl-propylcarbamoyl)-methyl]-carbamoyl}-ethyl)-carbamic Acid Benzyl Ester] | 0.5 | 0.009 | 0.05 | 360 | –
6 | CC(CNC(=O)CN(Cc1ccc(OCc2ccncc2)cc1)C(=O)[C@H](Cc1c[nH]cn1)NC(=O)OCc1ccccc1)c1ccccc1 (stereo partly drawn) [Example 34, (S)-(2-(1H-Imidazole-4-yl)-1-{[(2-phenyl-propyl-carbamoyl)-methyl]-[4-(pyridin-4-ylmethoxy)-benzyl]-carbamoyl}-ethyl)-carbamic Acid Benzyl Aster] | 0.097 | 0.002 | 0.05 | – | 140
7 | COc1cccc(CN(CC(=O)NCC(C)c2ccccc2)C(=O)[C@H](Cc2c[nH]cn2)NC(=O)OCc2ccccc2)c1 (stereo partly drawn) [Example 35, (S)-(2-(1H-Imidazole-4-yl)-1-{(3-methoxy-benzyl)-[(2-phenyl-propylcarbamoyl)-methyl]-carbamoyl}-ethyl)-carbamic Acid Benzyl Ester] | 2.1 | 0.009 | 0.2 | > 1000 | –
8 | CC(CNC(=O)CN(Cc1ccc(OCc2cccnc2)cc1)C(=O)[C@H](Cc1c[nH]cn1)NC(=O)OCc1ccccc1)c1ccccc1 (stereo partly drawn) [Example 36, (S)-(2-(1H-Imidazole-4-yl)-1-{[(2-phenyl-propylcarbamoyl)-methyl]-[4-(pyridin-3-ylmethoxy)-benzyl]-carbamoyl}-ethyl)-carbamic Acid Benzyl Ester] | 0.45 | 0.007 | ≥ 0.05 | 320 | –
9 | CC(CNC(=O)CN(Cc1ccc(C(F)(F)F)cc1)C(=O)[C@H](Cc1c[nH]cn1)NC(=O)OCc1ccccc1)c1ccccc1 (stereo partly drawn) [Example 38, (S)-{2-(1H-Imidazole-4-yl)-1-[[(2-phenyl-propylcarbamoyl)-methyl]-(4-trifluoromethyl-benzyl)-carbamoyl]-ethyl}-carbamic Acid Benzyl Ester] | 1.6 | 0.013 | 0.2 | 220 | –
10 | CC(C)(CNC(=O)CN(Cc1cccnc1)C(=O)[C@H](Cc1c[nH]cn1)NC(=O)OCc1ccccc1)c1ccccc1 [Example 39, (S)-(2-(1H-Imidazole-4-yl)-1-{[(2-methyl-2-phenyl-propylcarbamoyl)-methyl]-pyridin-3-ylmethyl-carbamoyl}-ethyl)-carbamic Acid Benzyl Ester] | 9.5 | 0.1 | > 0.2 | > 1000 | –
11 | CC(C)(CNC(=O)CN(Cc1ccc(OCc2ccccn2)cc1)C(=O)[C@H](Cc1c[nH]cn1)NC(=O)OCc1ccccc1)c1ccccc1 [Example 40, (S)-(2-(1H-Imidazole-4-yl)-1-{[(2-methyl-2-phenyl-propylcarbamoyl)-methyl]-[4-(pyridin-2-ylmethoxy)-benzyl]-carbamoyl}-ethyl)-carbamic Acid Benzyl Ester] | 0.12 | 0.001 | 0.01 | 190 | –
12 | CN(Cc1ccccc1)C(=O)N[C@@H](Cc1c[nH]cn1)C(=O)N(CC(=O)NCC(C)(C)c1ccccc1)Cc1ccc(OCc2ccccc2)cc1 [Example 41, (S)-2-(3-Benzyl-3-methyl-ureido)-N-(4-benzyloxy-benzyl)-3-(1H-imidazole-4-yl)-N-[(2-methyl-2-phenyl-propylcarbamoyl)-methyl]-propionamide] | 0.009 | 0.004 | 0.05 | 40 | –
13 | CC(C)(CNC(=O)CN(Cc1ccccc1)C(=O)[C@H](Cc1c[nH]cn1)NC(=O)OCc1ccccc1)c1ccccc1 [Example 42, (S)-[1-{Benzyl-[(2-methyl-2-phenyl-propylcarbamoyl)-methyl]-carbamoyl}-2-(1H-imidazole-4-yl)-ethyl]-carbamic Acid Benzyl Ester] | 0.6 | 0.005 | 0.05 | 510 | –
14 | Cc1ccccc1CN(CC(=O)NCC(C)c1ccccc1)C(=O)[C@H](Cc1c[nH]cn1)NC(=O)OCc1ccccc1 (some centres unmarked) [Example 43] | 3.9 | 0.038 | 0.2 | – | > 1000
15 | COc1ccc(CN(CC(=O)NCC(C)(C)c2ccccc2)C(=O)[C@H](Cc2c[nH]cn2)NC(=O)OCc2ccccc2)cc1 [Example 44, (S)-(2-(1H-Imidazole-4-yl)-1-{(4-methoxy-benzyl)-[(2-methyl-2-phenyl-propylcarbamoyl)-methyl]-carbamoyl}-ethyl)-carbamic Acid Benzyl Ester] | 0.3 | 0.002 | 0.02 | 360 | –
16 | N#CC(CNC(=O)CN(Cc1ccc(OCc2ccccc2)cc1)C(=O)[C@H](Cc1c[nH]cn1)NC(=O)OCc1ccccc1)c1ccccc1 (some centres unmarked) [Example 45] | 0.35 | 0.0024 | 0.05 | – | 140
17 | Cc1cccc(CN(CC(=O)NCC(C)c2ccccc2)C(=O)[C@H](Cc2c[nH]cn2)NC(=O)OCc2ccccc2)c1 (stereo partly drawn) [Example 47, (S)-(2-(1H-Imidazole-4-yl)-1-{(3-methyl-benzyl)-[(2-phenyl-propylcarbamoyl)-methyl]-carbamoyl}-ethyl)-carbamic Acid Benzyl Ester] | 0.62 | 0.035 | 0.05 | 730 | –
18 | CC(C)(CNC(=O)CN(Cc1ccc(OCc2ccncc2)cc1)C(=O)[C@H](Cc1c[nH]cn1)NC(=O)OCc1ccccc1)c1ccccc1 [Example 49, (S)-(2-(1H-Imidazole-4-yl)-1-{[(2-methyl-2-phenyl-propylcarbamoyl)-methyl]-[4-(pyridin-4-ylmethoxy)-benzyl]-carbamoyl}-ethyl)-carbamic Acid Benzyl Ester] | 0.06 | 0.009 | 0.05 | 100 | –
19 | CC(C)(CNC(=O)CN(Cc1ccc(OCc2cccnc2)cc1)C(=O)[C@H](Cc1c[nH]cn1)NC(=O)OCc1ccccc1)c1ccccc1 [Example 50, (S)-(2-(1H-Imidazole-4-yl)-1-{[(2-methyl-2-phenyl-propylcarbamoyl)-methyl]-[4-(pyridin-3-ylmethoxy)-benzyl]-carbamoyl}-ethyl)-carbamic Acid Benzyl Ester] | 0.089 | 0.001 | 0.05 | 270 | –
20 | CC(CNC(=O)CN(Cc1ccc(-c2ccccc2)cc1)C(=O)[C@H](Cc1c[nH]cn1)NC(=O)OCc1ccccc1)c1ccccc1 (stereo partly drawn) [Example 51, (S)-[1-{Biphenyl-4-ylmethyl-[(2-phenyl-propylcarbamoyl)-methyl]-carbamoyl}-2-(1H-imidazole-4-yl)-ethyl]-carbamic Acid Benzyl Ester] | 0.88 | 0.004 | ≥ 0.05 | 250 | –
